US9095138B2, “Isoxazoline insecticides” (E.I. du Pont de Nemours and Company, priority 2007, dated 2015)

Key:
[1] = tested on: diamondback moth (Plutella xylostella); test: Test A: control of diamondback moth on radish plant, foliar spray; type: in vivo; conditions: sprayed at 50 ppm; neonate larvae on radish; assessed after 6 days; replicated three times
Text: For evaluating control of diamondback moth (Plutella xylostella) the test unit consisted of a small open container with a 12-14-day-old radish plant inside. This was pre-infested with about 50 neonate larvae that were dispensed into the test unit via corn-cob grits using a bazooka inoculator. The larvae moved onto the test plant after being dispensed into the test unit.
(§1) Test compounds were formulated using a solution containing 10% acetone, 90% water and 300 ppm X-77™ Spreader Lo-Foam Formula non-ionic surfactant containing alkylarylpolyoxyethylene, free fatty acids, glycols and isopropanol (Loveland Industries, Inc. Greeley, Colo., USA). The formulated compounds were applied in 1 mL of liquid through a SUJ2 atomizer nozzle with ⅛ JJ custom body (Spraying Systems Co. Wheaton, Ill., USA) positioned 1.27 cm (0.5 inches) above the top of each test unit. All experimental compounds in these tests were sprayed at 50 ppm, and the test was replicated three times. After spraying of the formulated test compound, each test unit was allowed to dry for 1 h and then a black, screened cap was placed on top. The test units were held for 6 days in a growth chamber at 25° C. and 70% relative humidity. Plant feeding damage was then visually assessed based on foliage consumed and a pest mortality rating was also counted and calculated for each test unit.

[2] = tested on: western flower thrips (Frankliniella occidentalis); test: Test E: control of western flower thrips on Soleil bean plant, contact and/or systemic; type: in vivo; conditions: adult thrips, assessed after 6 days, replicated three times
Method: as §1
For evaluating control of the western flower thrips (Frankliniella occidentalis) through contact and/or systemic means, the test unit consisted of a small open container with a 5-7 day old Soleil Bean plant inside. Test compounds were formulated and sprayed as described for Test A. All experimental compounds in these tests were sprayed at 250 or 50 ppm as noted, and the test was replicated three times. After spraying, the test units were allowed to dry for 1 hour and then 22-27 adult thrips were added to each unit and then a black, screened cap was placed on top. The test units were held for 6 days at 25° C. and 45-55% relative humidity. A mortality rating was assessed along with a plant damage rating for each test unit.

Compound | control efficacy (feeding damage or mortality): very good to excellent levels [1] | control efficacy (feeding damage or mortality): very good to excellent levels ([2]; sprayed at 50 ppm) | control efficacy (feeding damage or mortality): very good to excellent levels ([2]; sprayed at 250 ppm)
O=C(NC(C(=O)O)c1ccccc1)c1ccc(C2=NOC(c3cc(Cl)cc(Cl)c3)(C(F)(F)F)C2)c2ccccc12 (mixture of isomers) [Compound 5] | 20% or less feeding damage or 80% or more mortality |  | 
CC(NC(=O)c1ccc(C2=NOC(c3cc(Cl)cc(OC(F)(F)F)c3)(C(F)(F)F)C2)c2ccccc12)C(=O)O (mixture of isomers) [Compound 35] | 20% or less feeding damage or 80% or more mortality |  | 
CC(NC(=O)c1ccc(C2=NOC(c3cc(Cl)cc(OCC(F)(F)F)c3)(C(F)(F)F)C2)c2ccccc12)C(=O)O (mixture of isomers) [Compound 37] | 20% or less feeding damage or 80% or more mortality |  | 
CN(CCCNC(=O)c1ccc(C2=NOC(c3cc(Cl)cc(Cl)c3)(C(F)(F)F)C2)c2ccccc12)C(=O)OC(C)(C)C (racemic) [Compound 3] | 20% or less feeding damage or 80% or more mortality | 20% or less feeding damage or 80% or more mortality | 20% or less feeding damage or 80% or more mortality
CC(C)(NC(=O)c1ccc(C2=NOC(c3cc(Cl)cc(Cl)c3)(C(F)(F)F)C2)c2ccccc12)C(=O)O (racemic) [Compound 6] | 20% or less feeding damage or 80% or more mortality | 20% or less feeding damage or 80% or more mortality | 20% or less feeding damage or 80% or more mortality
O=C(O)CCNC(=O)c1ccc(C2=NOC(c3cc(Cl)cc(Cl)c3)(C(F)(F)F)C2)c2ccccc12 (racemic) [Compound 7] | 20% or less feeding damage or 80% or more mortality |  | 
O=C(O)CNC(=O)c1ccc(C2=NOC(c3cc(Cl)c(Cl)c(Cl)c3)(C(F)(F)F)C2)c2ccccc12 (racemic) [Compound 8] | 20% or less feeding damage or 80% or more mortality |  | 20% or less feeding damage or 80% or more mortality
CS(=O)(=O)NC(=O)c1ccc(C2=NOC(c3cc(Cl)cc(Cl)c3)(C(F)(F)F)C2)c2ccccc12 (racemic) [Compound 10] | 20% or less feeding damage or 80% or more mortality |  | 
O=C(O)CNC(=O)c1ccc(C2=NOC(c3cc(Cl)cc(Cl)c3)(C(F)(F)F)C2)c2ccccc12 (racemic) [Compound 12] | 20% or less feeding damage or 80% or more mortality |  | 
O=C([O-])CNC(=O)c1ccc(C2=NOC(c3cc(Cl)cc(Cl)c3)(C(F)(F)F)C2)c2ccccc12.[Na+] (racemic) [Compound 13] | 20% or less feeding damage or 80% or more mortality |  | 
O=C(O)CNC(=O)c1ccc(C2=NOC(c3cc(Br)cc(C(F)(F)F)c3)(C(F)(F)F)C2)c2ccccc12 (racemic) [Compound 23] | 20% or less feeding damage or 80% or more mortality |  | 
CC(C)=NOC(=O)CNC(=O)c1ccc(C2=NOC(c3cc(C(F)(F)F)cc(C(F)(F)F)c3)(C(F)(F)F)C2)c2ccccc12 (racemic) [Compound 25] | 20% or less feeding damage or 80% or more mortality |  | 
O=C(O)CNC(=O)c1ccc(C2=NOC(c3cc(Cl)cc(C(F)(F)F)c3)(C(F)(F)F)C2)c2ccccc12 (racemic) [Compound 26] | 20% or less feeding damage or 80% or more mortality |  | 20% or less feeding damage or 80% or more mortality
O=C(O)CNC(=O)c1ccc(C2=NOC(c3cc(Cl)cc(OC(F)(F)F)c3)(C(F)(F)F)C2)c2ccccc12 (racemic) [Compound 34] | 20% or less feeding damage or 80% or more mortality |  | 
CC(C)[C@@H](NC(=O)c1ccc(C2=NOC(c3cc(C(F)(F)F)cc(C(F)(F)F)c3)(C(F)(F)F)C2)c2ccccc12)C(=O)O (stereo partly drawn) [Compound 39] | 20% or less feeding damage or 80% or more mortality |  | 
CC(C)(NC(=O)c1ccc(C2=NOC(c3cc(Cl)cc(Cl)c3)(C(F)(F)F)C2)c2ccccc12)C(=O)NCC1CC1 (stereo not drawn) [Compound 43] | 20% or less feeding damage or 80% or more mortality | 20% or less feeding damage or 80% or more mortality | 20% or less feeding damage or 80% or more mortality

Compound | control efficacy (feeding damage or mortality): very good to excellent levels [1] | control efficacy (feeding damage or mortality): very good to excellent levels ([2]; sprayed at 50 ppm) | control efficacy (feeding damage or mortality): very good to excellent levels ([2]; sprayed at 250 ppm)
O=C(CNC(=O)c1ccc(C2=NOC(c3cc(Cl)cc(Cl)c3)(C(F)(F)F)C2)c2ccccc12)NCc1ccccn1 (stereo not drawn) [Compound 45] | 20% or less feeding damage or 80% or more mortality |  | 20% or less feeding damage or 80% or more mortality
O=C(CNC(=O)c1ccc(C2=NOC(c3cc(Cl)cc(Cl)c3)(C(F)(F)F)C2)c2ccccc12)Nc1ccc(C(F)(F)F)cc1 (stereo not drawn) [Compound 46] | 20% or less feeding damage or 80% or more mortality |  | 
CSCCNC(=O)CNC(=O)c1ccc(C2=NOC(c3cc(Cl)cc(Cl)c3)(C(F)(F)F)C2)c2ccccc12 (stereo not drawn) [Compound 48] | 20% or less feeding damage or 80% or more mortality |  | 20% or less feeding damage or 80% or more mortality
CSCCNC(=O)CNC(=O)c1ccc(C2=NOC(c3cccc(Br)c3)(C(F)(F)F)C2)c2ccccc12 (stereo not drawn) [Compound 57] | 20% or less feeding damage or 80% or more mortality |  | 
O=C(CNC(=O)c1ccc(C2=NOC(c3cccc(OC(F)(F)F)c3)(C(F)(F)F)C2)c2ccccc12)NCc1ccccn1 (stereo not drawn) [Compound 59] | 20% or less feeding damage or 80% or more mortality |  | 
O=C(CNC(=O)c1ccc(C2=NOC(c3cc(F)cc(F)c3)(C(F)(F)F)C2)c2ccccc12)NC1CC1 (stereo not drawn) [Compound 62] | 20% or less feeding damage or 80% or more mortality |  | 
O=C(CNC(=O)c1ccc(C2=NOC(c3cccc(F)c3)(C(F)(F)F)C2)c2ccccc12)NC1CC1 (stereo not drawn) [Compound 63] | 20% or less feeding damage or 80% or more mortality |  | 
O=C(NCC(=O)N1CCCCC1)c1ccc(C2=NOC(c3cc(Cl)cc(Cl)c3)(C(F)(F)F)C2)c2ccccc12 (stereo not drawn) [Compound 89] | 20% or less feeding damage or 80% or more mortality |  | 20% or less feeding damage or 80% or more mortality
CCS(=O)(=O)N1CCN(C(=O)CNC(=O)c2ccc(C3=NOC(c4cccc(C(F)(F)F)c4)(C(F)(F)F)C3)c3ccccc23)CC1 (stereo not drawn) [Compound 92] | 20% or less feeding damage or 80% or more mortality |  | 
COC(=O)[C@@H]1CCCN1C(=O)c1ccc(C2=NOC(c3cc(Cl)cc(Cl)c3)(C(F)(F)F)C2)c2ccccc12 (stereo partly drawn) [Compound 97] | 20% or less feeding damage or 80% or more mortality |  | 
COC(=O)[C@H]1CCCN1C(=O)c1ccc(C2=NOC(c3cc(Cl)cc(Cl)c3)(C(F)(F)F)C2)c2ccccc12 (stereo partly drawn) [Compound 98] | 20% or less feeding damage or 80% or more mortality |  | 20% or less feeding damage or 80% or more mortality
O=C(O)[C@@H]1CCCN1C(=O)c1ccc(C2=NOC(c3cc(Cl)cc(Cl)c3)(C(F)(F)F)C2)c2ccccc12 (stereo partly drawn) [Compound 99] | 20% or less feeding damage or 80% or more mortality |  | 
CNC(=O)[C@@H]1CCCN1C(=O)c1ccc(C2=NOC(c3cc(Cl)cc(Cl)c3)(C(F)(F)F)C2)c2ccccc12 (stereo partly drawn) [Compound 103] | 20% or less feeding damage or 80% or more mortality |  | 
CCNC(=O)[C@@H]1CCCN1C(=O)c1ccc(C2=NOC(c3cc(Cl)cc(Cl)c3)(C(F)(F)F)C2)c2ccccc12 (stereo partly drawn) [Compound 105] | 20% or less feeding damage or 80% or more mortality |  | 
CCNC(=O)[C@H]1CCCN1C(=O)c1ccc(C2=NOC(c3cc(Cl)cc(Cl)c3)(C(F)(F)F)C2)c2ccccc12 (stereo partly drawn) [Compound 106] | 20% or less feeding damage or 80% or more mortality | 20% or less feeding damage or 80% or more mortality | 20% or less feeding damage or 80% or more mortality
